Data from patent US9980943B2, “Methods of treating muscular dystrophy” (BOARD OF REGENTS OF THE NEVADA SYSTEM OF HIGHER EDUCATION, …, priority 2013, dated 2018).
Several values for one entry are separate records, joined by “and”; a condition that tells them apart may be missing. Equal entries are not always repeated.

How the values were obtained:
Assay type in all cases: cell-based, mouse
[1] = test system: α7 integrin (LacZ reporter in α7βgal+/− myoblasts); assay: Myoblast α7+/LacZ integrin FDG assay (Burkin assay in myoblasts, 96-well); settings: α7+/LacZ myoblasts, 96-well
[2] = test system: α7 integrin (LacZ reporter in α7+/LacZ myotubes); assay: Myotube α7 integrin FDG assay (Burkin assay in myotubes, 96-well); settings: myotubes
[3] = test system: β-galactosidase in CMV-LacZ C2C12 myoblasts; assay: CMV-LacZ secondary screen in C2C12 myoblasts (β-Gal stabilizing assay); settings: CMV-LacZ C2C12 myoblasts
Procedure, shortened: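 Stable CMV-LacZ C2C12 clone; six-point curve 0.5–40 μM; duplicates.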

[4] = test system: β-galactosidase in CMV-LacZ C2C12 myotubes; assay: CMV-LacZ secondary screen in C2C12 myotubes (β-Gal stabilizing assay); settings: C2C12 CMV-LacZ myotubes, fold relative to DMSO
Procedure, shortened: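 β-Gal level was the read-out, measured in a clonal C2C12 line expressing LacZ from a CMV promoter. Dose-response curves used six concentrations, 0.5 μM up to 40 μM, with duplicate points.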

Structure (SMILES)	Burkin Assay in Myoblasts, signal relative to DMSO ([1]; 0.5 uM)	Burkin Assay in Myoblasts, signal relative to DMSO ([1]; 1 uM)	Burkin Assay in Myoblasts, signal relative to DMSO ([1]; 5 uM)	Burkin Assay in Myoblasts, signal relative to DMSO ([1]; 10 uM)	Burkin Assay in Myoblasts, signal relative to DMSO ([1]; 20 uM)	Burkin Assay in Myoblasts, signal relative to DMSO ([1]; 40 uM)	Burkin Assay in Myotubes, α7 integrin LacZ reporter signal relative to DMSO ([2]; 0.5 uM)	Burkin Assay in Myotubes, α7 integrin LacZ reporter signal relative to DMSO ([2]; 1 uM)	Burkin Assay in Myotubes, α7 integrin LacZ reporter signal relative to DMSO ([2]; 5 uM)	Burkin Assay in Myotubes, α7 integrin LacZ reporter signal relative to DMSO ([2]; 10 uM)	Burkin Assay in Myotubes, α7 integrin LacZ reporter signal relative to DMSO ([2]; 20 uM)	Burkin Assay in Myotubes, α7 integrin LacZ reporter signal relative to DMSO ([2]; 40 uM)	CMV-LACZ in Myoblasts (β-galactosidase activity relative to DMSO) ([3]; 0.5 uM)	CMV-LACZ in Myoblasts (β-galactosidase activity relative to DMSO) ([3]; 1 uM)	CMV-LACZ in Myoblasts (β-galactosidase activity relative to DMSO) ([3]; 5 uM)	CMV-LACZ in Myoblasts (β-galactosidase activity relative to DMSO) ([3]; 10 uM)	CMV-LACZ in Myoblasts (β-galactosidase activity relative to DMSO) ([3]; 20 uM)	CMV-LACZ in Myoblasts (β-galactosidase activity relative to DMSO) ([3]; 40 uM)	CMV-LACZ in Myotubes, signal relative to DMSO ([4]; 0.5 uM)	CMV-LACZ in Myotubes, signal relative to DMSO ([4]; 1 uM)	other results
C/C(=N\NC(=O)c1cc(C)oc1C)c1ccc2ccccc2c1 [MLS000912258-01]	0.8436	0.9089	1.2722	0.8425	0.6351	0.3725	0.9264	0.8571	1.144	0.9631	0.877	0.7193	1.1073	1.1693	0.9071	1.0171	1.1074	0.8621	0.9743	0.9162	CMV-LACZ in Myotubes, signal relative to DMSO ([4]; 5 uM): 1.1251; CMV-LACZ in Myotubes, signal relative to DMSO ([4]; 10 uM): 1.2253; CMV-LACZ in Myotubes, signal relative to DMSO ([4]; 20 uM): 1.0760; CMV-LACZ in Myotubes, signal relative to DMSO ([4]; 40 uM): 1.0350
CCNC(=O)C(=O)Nc1cc2c3c(c1)CCN3C(=O)CC2 [MLS001167798-01]	1.058	1.166	1.277	1.064	1.051	1.006	1.051	0.9243	1.118	0.9382	0.7983	0.7231	1.0342	0.7750	1.1822	1.1494	1.2196	1.1452	0.9143	0.9295	CMV-LACZ in Myotubes, signal relative to DMSO ([4]; 5 uM): 1.1987; CMV-LACZ in Myotubes, signal relative to DMSO ([4]; 10 uM): 1.2238; CMV-LACZ in Myotubes, signal relative to DMSO ([4]; 20 uM): 1.3337; CMV-LACZ in Myotubes, signal relative to DMSO ([4]; 40 uM): 1.2800
CC1(C)Cc2c(cnn2-c2cccc(F)c2)C(NC(=O)CCc2cnccn2)C1 (stereo not drawn) [MLS001125260-01]	1.21 and 1.071	1.11 and 1.021	0.9838 and 0.9248	0.9616 and 0.8893	1.024 and 0.8738	0.9057 and 0.8426	1.285 and 1.002	1.208 and 0.8663	0.9677 and 1.022	1.091 and 0.9402	0.7634 and 0.9057	0.7451 and 0.9086	1.1581	1.0584	1.0114	0.9131	1.0563	1.2270	1.0074	1.0993	CMV-LACZ in Myotubes, signal relative to DMSO ([4]; 5 uM): 0.9614 and 0.9645; CMV-LACZ in Myotubes, signal relative to DMSO ([4]; 10 uM): 1.0994 and 1.065; CMV-LACZ in Myotubes, signal relative to DMSO ([4]; 20 uM): 1.0000 and 1.0765; CMV-LACZ in Myotubes, signal relative to DMSO ([4]; 40 uM): 0.9212 and 1.175
